The source of these data is patent publication USRE37781E1, “Substituted cyclic carbonyls and derivatives thereof useful as retroviral protease inhibitors” (DuPont Pharmaceuticals Company, priority 1991, dated 2002).

The subject of one test is HIV-1 (RF) in MT-2 cells. Put plainly: microbe, parasite or virus in culture. The conditions noted are these: Human immunodeficiency virus 1, MT2, 48 h, Table 2d; class symbols; read-out: IC90. Format: cell-based. The gist of the method: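 Read-out: gag and pol viral RNA captured by 5′-biotinylated oligonucleotides on streptavidin-coated wells, detected with alkaline phosphatase-linked reporter oligonucleotides, calibrated against BH10 in vitro transcripts. Virus stocks (RF, MN, IIIB) come from H9 cultures; MT-2 host cells kept in RPMI 1640, 5% FCS.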
As usually defined, the IC90 is the concentration needed for an effect of 90%. As for `CNc1cccc(CN2C(=O)N(Cc3ccc(CO)cc3)C(Cc3ccccc3)C(O)C(O)C2Cc2ccccc2)c1` (stereo not shown) [15M], the IC90 was less than 10 µg/mL.

`NCC(=O)Nc1cccc(CN2C(=O)N(Cc3cccc(NC(=O)CN)c3)C(Cc3ccccc3)C(O)C(O)C2Cc2ccccc2)c1` (stereo not shown) [15R]: the IC90 was less than 10 µg/mL.

On to `CCNC(=O)c1cccc(CN2C(=O)N(Cc3cccc(CO)c3)C(Cc3ccccc3)C(O)C(O)C2Cc2ccccc2)c1` (stereo not shown) [15WK], for which the concentration for an effect of 90% (IC90) was less than 10 µg/mL.

As to `CCCNC(=O)c1cccc(CN2C(=O)N(Cc3cccc(C(=O)NCCC)c3)C(Cc3ccccc3)C(O)C(O)C2Cc2ccccc2)c1` (stereo not shown) [15WM], the IC90 was less than 10 µg/mL.

On to `O=C1N(Cc2cccnc2)C(Cc2ccccc2)C(O)C(O)C(Cc2ccccc2)N1Cc1cccc(CO)c1` (stereo not shown) [15WS], for which the IC90 is less than 10 µg/mL.

For the compound `Nc1cccc(CN2C(=O)N(Cc3ccc4ccccc4c3)C(Cc3ccccc3)C(O)C(O)C2Cc2ccccc2)c1` (stereo not shown) [15WU], the IC90 is less than 10 µg/mL.

The test is the same for the next values; noted with them: Table 2d; HIV RNA assay.
On to `CNC(=O)OCCCCCN1C(=O)N(CCCCCOC(=O)NC)C(Cc2ccccc2)C(O)C(O)C1Cc1ccccc1` (stereo not shown) [15EK], for which the IC90 entry is reported as “++ (++=10 to 100 μg/mL)”.

Regarding `CC1(C)CCC(C)(C)c2cc(CN3C(=O)N(Cc4ccc5c(c4)C(C)(C)CCC5(C)C)C(Cc4ccccc4)C(O)C(O)C3Cc3ccccc3)ccc21` (stereo not shown) [15EL], the IC90 entry is reported as “++/+ (The ++/+ is used in the cases where an IC90 was determined to be >50 μg/mL)”.

Consider `CS(=O)(=O)NCCCCCN1C(=O)N(CCCCCNS(C)(=O)=O)C(Cc2ccccc2)C(O)C(O)C1Cc1ccccc1` (stereo not shown) [15EN], for which the 90% effect concentration (IC90) result is reported as “++/+ (The ++/+ is used in the cases where an IC90 was determined to be >50 μg/mL)”.

In the case of `COC(=O)NCCCCCN1C(=O)N(CCCCCNC(=O)OC)C(Cc2ccccc2)C(O)C(O)C1Cc1ccccc1` (stereo not shown) [15EQ], the IC90 entry is on record as “++/+ (The ++/+ is used in the cases where an IC90 was determined to be >50 μg/mL)”.

In the case of `O=C(NCCCCCN1C(=O)N(CCCCCNC(=O)Nc2ccccc2)C(Cc2ccccc2)C(O)C(O)C1Cc1ccccc1)Nc1ccccc1` (stereo not shown) [15ER], the IC90 result is recorded as “++/+ (The ++/+ is used in the cases where an IC90 was determined to be >50 μg/mL)”.

Consider `CNC(=O)NCCCCCN1C(=O)N(CCCCCNC(=O)NC)C(Cc2ccccc2)C(O)C(O)C1Cc1ccccc1` (stereo not shown) [15ES], for which the IC90 result was “++/+ (The ++/+ is used in the cases where an IC90 was determined to be >50 μg/mL)”.

For the compound `CC(=O)NCCCCCN1C(=O)N(CCCCCNC(C)=O)C(Cc2ccccc2)C(O)C(O)C1Cc1ccccc1` (stereo not shown) [15ET], the IC90 entry is “++/+ (The ++/+ is used in the cases where an IC90 was determined to be >50 μg/mL)”.

Regarding `Cl.Cl.O=C(NCCCCCN1C(=O)N(CCCCCNC(=O)OCc2cccnc2)C(Cc2ccccc2)C(O)C(O)C1Cc1ccccc1)OCc1cccnc1` (stereo not shown) [15EU], the concentration for an effect of 90% (IC90) entry is recorded as “+++ (+++=<10 μg/mL)”.

As to `CNC(=S)NCCCCCN1C(=O)N(CCCCCNC(=S)NC)C(Cc2ccccc2)C(O)C(O)C1Cc1ccccc1` (stereo not shown) [15EV], the 90% effect concentration (IC90) result is reported as “++/+ (The ++/+ is used in the cases where an IC90 was determined to be >50 μg/mL)”.

As to `O=C1N(CCCCCNC(=S)Nc2ccccc2)C(Cc2ccccc2)C(O)C(O)C(Cc2ccccc2)N1CCCCCNC(=S)Nc1ccccc1` (stereo not shown) [15EW], the IC90 result is “++/+ (The ++/+ is used in the cases where an IC90 was determined to be >50 μg/mL)”.

With `O=C(NCCCCCN1C(=O)N(CCCCCNC(=O)c2ccccc2)C(Cc2ccccc2)C(O)C(O)C1Cc1ccccc1)c1ccccc1` (stereo not shown) [15EX], the IC90 entry was “++/+ (The ++/+ is used in the cases where an IC90 was determined to be >50 μg/mL)”.

Staying with this test, now noted: Table 2d; class symbols.
For the compound `CN(C)CC(=O)Nc1cccc(CN2C(=O)N(Cc3cccc(NC(=O)CN(C)C)c3)C(Cc3ccccc3)C(O)C(O)C2Cc2ccccc2)c1.Cl.Cl` (stereo not shown) [15N], the IC90 entry is “+++ (+++=<10 μg/mL)”.

For the compound `CNCC(=O)Nc1cccc(CN2C(=O)N(Cc3cccc(NC(=O)CNC)c3)C(Cc3ccccc3)C(O)C(O)C2Cc2ccccc2)c1.Cl.Cl` (stereo not shown) [15O], the IC90 result is “+++ (+++=<10 μg/mL)”.

For `CS(=O)(=O)CCCCCN1C(=O)N(CCCCCO)C(Cc2ccccc2)C(O)C(O)C1Cc1ccccc1` (stereo not shown) [15VT], the IC90 result is “+++ (+++=<10 μg/mL)”.

A further test has as its target single-chain tethered dimer of HIV protease (Human immunodeficiency virus 1, UniProt P04585). In words: biochemical. Format: biochemical. Set-up: fused on or other part: A second copy of the same protease unit is joined to the first by a short peptide tether, giving one polypeptide. The conditions noted are these: Table 2d; HIV protease inhibition, HPLC method; read-out: HPLC K1.
Consider `CNC(=O)OCCCCCN1C(=O)N(CCCCCOC(=O)NC)C(Cc2ccccc2)C(O)C(O)C1Cc1ccccc1` (stereo not shown) [15EK], for which the Ki was in the range of 10 to 1000 nM.

Turning to `CC1(C)CCC(C)(C)c2cc(CN3C(=O)N(Cc4ccc5c(c4)C(C)(C)CCC5(C)C)C(Cc4ccccc4)C(O)C(O)C3Cc3ccccc3)ccc21` (stereo not shown) [15EL], the Ki was more than 1000 nM.

As to `CS(=O)(=O)NCCCCCN1C(=O)N(CCCCCNS(C)(=O)=O)C(Cc2ccccc2)C(O)C(O)C1Cc1ccccc1` (stereo not shown) [15EN], the Ki was in the range of 10 to 1000 nM.

For the compound `COC(=O)NCCCCCN1C(=O)N(CCCCCNC(=O)OC)C(Cc2ccccc2)C(O)C(O)C1Cc1ccccc1` (stereo not shown) [15EQ], the Ki is 10 to 1000 nM.

As for `O=C(NCCCCCN1C(=O)N(CCCCCNC(=O)Nc2ccccc2)C(Cc2ccccc2)C(O)C(O)C1Cc1ccccc1)Nc1ccccc1` (stereo not shown) [15ER], the Ki fell in the range of 10 to 1000 nM.

For `CNC(=O)NCCCCCN1C(=O)N(CCCCCNC(=O)NC)C(Cc2ccccc2)C(O)C(O)C1Cc1ccccc1` (stereo not shown) [15ES], the Ki was 10 to 1000 nM.

Turning to `CC(=O)NCCCCCN1C(=O)N(CCCCCNC(C)=O)C(Cc2ccccc2)C(O)C(O)C1Cc1ccccc1` (stereo not shown) [15ET], the Ki fell in the range of 10 to 1000 nM.

As for `Cl.Cl.O=C(NCCCCCN1C(=O)N(CCCCCNC(=O)OCc2cccnc2)C(Cc2ccccc2)C(O)C(O)C1Cc1ccccc1)OCc1cccnc1` (stereo not shown) [15EU], the Ki was less than 10 nM.

Regarding `CNC(=S)NCCCCCN1C(=O)N(CCCCCNC(=S)NC)C(Cc2ccccc2)C(O)C(O)C1Cc1ccccc1` (stereo not shown) [15EV], the Ki lay within 10 to 1000 nM.

`O=C1N(CCCCCNC(=S)Nc2ccccc2)C(Cc2ccccc2)C(O)C(O)C(Cc2ccccc2)N1CCCCCNC(=S)Nc1ccccc1` (stereo not shown) [15EW]: the Ki was 10 to 1000 nM.

In the case of `O=C(NCCCCCN1C(=O)N(CCCCCNC(=O)c2ccccc2)C(Cc2ccccc2)C(O)C(O)C1Cc1ccccc1)c1ccccc1` (stereo not shown) [15EX], the Ki is 10 to 1000 nM.

Still in this test, the particulars now being: Table 2d; class symbols; read-out: HPLC K1.
As for `CN(C)CC(=O)Nc1cccc(CN2C(=O)N(Cc3cccc(NC(=O)CN(C)C)c3)C(Cc3ccccc3)C(O)C(O)C2Cc2ccccc2)c1.Cl.Cl` (stereo not shown) [15N], the Ki is less than 10 nM.

Consider `CNCC(=O)Nc1cccc(CN2C(=O)N(Cc3cccc(NC(=O)CNC)c3)C(Cc3ccccc3)C(O)C(O)C2Cc2ccccc2)c1.Cl.Cl` (stereo not shown) [15O], for which the Ki was less than 10 nM.

Consider `CS(=O)(=O)CCCCCN1C(=O)N(CCCCCO)C(Cc2ccccc2)C(O)C(O)C1Cc1ccccc1` (stereo not shown) [15VT], for which the Ki was less than 10 nM.

Staying with this test, now noted: read-out: HPLC K1; Table 2d; class symbols.
For the compound `CNc1cccc(CN2C(=O)N(Cc3ccc(CO)cc3)C(Cc3ccccc3)C(O)C(O)C2Cc2ccccc2)c1` (stereo not shown) [15M], the Ki is less than 10 nM.

Take `NCC(=O)Nc1cccc(CN2C(=O)N(Cc3cccc(NC(=O)CN)c3)C(Cc3ccccc3)C(O)C(O)C2Cc2ccccc2)c1` (stereo not shown) [15R]: the Ki was less than 10 nM.

`CCNC(=O)c1cccc(CN2C(=O)N(Cc3cccc(CO)c3)C(Cc3ccccc3)C(O)C(O)C2Cc2ccccc2)c1` (stereo not shown) [15WK]: the Ki was less than 10 nM.

In the case of `CCCNC(=O)c1cccc(CN2C(=O)N(Cc3cccc(C(=O)NCCC)c3)C(Cc3ccccc3)C(O)C(O)C2Cc2ccccc2)c1` (stereo not shown) [15WM], the Ki was less than 10 nM.

Take `O=C1N(Cc2cccnc2)C(Cc2ccccc2)C(O)C(O)C(Cc2ccccc2)N1Cc1cccc(CO)c1` (stereo not shown) [15WS]: the Ki is less than 10 nM.

In the case of `Nc1cccc(CN2C(=O)N(Cc3ccc4ccccc4c3)C(Cc3ccccc3)C(O)C(O)C2Cc2ccccc2)c1` (stereo not shown) [15WU], the Ki was less than 10 nM.
